The values below come from publication PMC6341602, “Cytosolic group IVA phospholipase A2 inhibitors, AVX001 and AVX002, ameliorate collagen-induced arthritis” (Arthritis Research & Therapy, 2019).

This experiment deals with T1, GIVA cPLA2 (cPLA2α) (Homo sapiens, UniProt P47712).
T1 construct: gene PLA2G4A
T1 sequence (P47712 1-749): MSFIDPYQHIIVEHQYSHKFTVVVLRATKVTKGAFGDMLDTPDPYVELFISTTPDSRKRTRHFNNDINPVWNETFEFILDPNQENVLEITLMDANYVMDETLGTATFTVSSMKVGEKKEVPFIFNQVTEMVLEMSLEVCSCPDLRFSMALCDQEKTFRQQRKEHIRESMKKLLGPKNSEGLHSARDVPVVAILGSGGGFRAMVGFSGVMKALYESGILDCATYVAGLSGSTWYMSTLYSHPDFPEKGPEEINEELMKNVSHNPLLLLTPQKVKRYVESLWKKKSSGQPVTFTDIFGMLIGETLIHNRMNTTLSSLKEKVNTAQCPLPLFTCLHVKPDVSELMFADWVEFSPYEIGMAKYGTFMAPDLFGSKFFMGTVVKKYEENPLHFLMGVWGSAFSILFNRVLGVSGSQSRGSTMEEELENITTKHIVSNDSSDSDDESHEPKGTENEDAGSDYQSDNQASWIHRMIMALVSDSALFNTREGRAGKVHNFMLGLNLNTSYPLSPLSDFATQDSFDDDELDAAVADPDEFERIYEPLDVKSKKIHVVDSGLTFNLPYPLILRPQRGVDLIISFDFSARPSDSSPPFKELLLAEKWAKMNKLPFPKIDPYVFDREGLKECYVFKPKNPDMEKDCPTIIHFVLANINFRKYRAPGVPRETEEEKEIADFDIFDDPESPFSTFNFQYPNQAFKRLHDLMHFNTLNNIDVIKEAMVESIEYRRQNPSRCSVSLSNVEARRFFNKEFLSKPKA
The experiment is described as follows: in vitro mixed micelle modified Dole assay ([…]-PAPC). The class given is biochemical.

As for `CC/C=C\C/C=C\C/C=C\C/C=C\CC/C=C/CSCC(=O)C(F)(F)F` [AVX001, (6E,10Z,13Z,16Z,19Z)-1,1,1-trifluoro-4-thiadocosa-6,10,13,16,19-pentaen-2-one], the “In vitro enzyme activity / GIVA cPLA2 / XI(50)” value is recorded as 0.0072 ± 0.0007 mole fraction (XI(50)).

Consider `CC/C=C\C/C=C\C/C=C\C/C=C\C/C=C\CCSCC(=O)C(F)(F)F` [AVX002, 1,1,1-trifluoro-3-(((3Z,6Z,9Z,12Z,15Z)-octadeca-3,6,9,12,15-pentaen-1-yl)thio)propan-2-one], for which the “In vitro enzyme activity / GIVA cPLA2 / XI(50)” value is on record as 0.0057 ± 0.001 mole fraction (XI(50)).
